Experimental findings from patent US11180474B2 (BRISTOL-MYERS SQUIBB COMPANY, priority 2016, dated 2021) are described below.

One test has as its system TLR9. The experiment in a line: In vivo mouse TLR9 PD model (CpG-ODN challenge, plasma IL-6). The settings on record: oral. The protocol:
In Vivo Mouse TLR7 and TLR9 PD Model:
Adult male C57BL/6 mice were used for the experiments. Mice (7 to 10 per group) were randomized into different treatment groups based on body weight. Mice from the respective treatment groups were administered orally with vehicle or test compound. Thirty min after the oral administration of vehicle or test compound, mice were challenged with intraperitoneal injection of gardiquimod for TLR7 PD model and CpG-ODN for TLR9 PD model. Ninety minutes after gardiquimod injection and 120 minutes after CpG-ODN injection, mice were bled under isoflurane anaesthesia and plasma IL-6 level was estimated by using commercially available ELISA kit (BD Biosciences). At the end of experiment, mean cytokine data was plotted and one way ANOVA with Dunnett's test was performed to calculate the significance of test compound treated group vs. vehicle control group. Percent inhibition of cytokine induction was calculated for test compound treated group vs vehicle control group.

The target of a further test is T1, human TLR9 (Homo sapiens, UniProt Q9NR96).
T1 construct: host or cells: HEK-Blue cells
T1 sequence (Q9NR96 26-1032): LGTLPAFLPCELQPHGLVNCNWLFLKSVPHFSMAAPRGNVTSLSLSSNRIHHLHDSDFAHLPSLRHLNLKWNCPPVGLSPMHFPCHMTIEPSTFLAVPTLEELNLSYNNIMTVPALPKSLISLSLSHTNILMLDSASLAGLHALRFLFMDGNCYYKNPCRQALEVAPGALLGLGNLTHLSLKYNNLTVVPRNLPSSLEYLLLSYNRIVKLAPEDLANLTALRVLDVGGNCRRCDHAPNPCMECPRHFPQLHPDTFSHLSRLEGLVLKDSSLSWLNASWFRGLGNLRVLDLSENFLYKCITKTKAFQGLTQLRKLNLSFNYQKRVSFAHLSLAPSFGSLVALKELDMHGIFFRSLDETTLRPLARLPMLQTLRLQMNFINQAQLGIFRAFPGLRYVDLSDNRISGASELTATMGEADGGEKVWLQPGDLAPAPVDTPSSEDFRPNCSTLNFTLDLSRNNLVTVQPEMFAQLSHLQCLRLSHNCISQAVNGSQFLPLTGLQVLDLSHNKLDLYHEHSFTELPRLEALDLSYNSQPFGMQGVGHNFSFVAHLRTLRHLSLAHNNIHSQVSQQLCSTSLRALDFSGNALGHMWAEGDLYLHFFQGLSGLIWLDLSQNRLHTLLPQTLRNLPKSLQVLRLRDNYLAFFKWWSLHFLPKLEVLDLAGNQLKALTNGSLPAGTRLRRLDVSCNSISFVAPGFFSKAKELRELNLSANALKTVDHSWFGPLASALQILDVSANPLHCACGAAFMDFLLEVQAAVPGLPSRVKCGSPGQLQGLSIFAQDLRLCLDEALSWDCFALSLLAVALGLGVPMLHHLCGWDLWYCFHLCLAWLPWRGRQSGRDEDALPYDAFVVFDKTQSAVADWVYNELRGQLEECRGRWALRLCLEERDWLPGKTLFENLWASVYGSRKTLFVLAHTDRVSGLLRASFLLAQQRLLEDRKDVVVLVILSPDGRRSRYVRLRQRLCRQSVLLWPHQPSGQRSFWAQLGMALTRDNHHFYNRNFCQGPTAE
The experiment in a line: TLR9 inhibition reporter assay (HEK-Blue cells, SEAP reporter, ODN2006 stimulation). The test is classed as cell-based. The settings on record: HEK-Blue cells overexpressing human TLR9, ODN2006 5 nM. A digest of the protocol:
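Dose–response from 0.05 nM to 50 μM was run in HEK-Blue human TLR7, TLR8 and TLR9 reporter cells. After 30 min at room temperature with compound, ligand was added (TLR7 gardiquimod 7.5 μM; TLR8 R848 15.9 μM; TLR9 ODN2006 5 nM) and SEAP measured next day, at 22 h.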
(Reporter assays use an easily measured gene product as a stand-in for the process of interest.)

As usually defined, the IC50 is the concentration at which inhibition is half-maximal. Lower therefore signals higher potency. `CNCCN1CCC(c2ccc3[nH]c(-c4ccc(OC)c(OC)c4)c(C(C)C)c3c2)CC1` [Example 196, 2-(4-(2-(3,4-dimethoxyphenyl)-3-isopropyl-1H-indol-5-yl)piperidin-1-yl)-N-methylethan-1-amine]: the “% inhibition of IL6” value in the test on TLR9 (dose 1 mg/kg) was 47%; in the test on TLR9 (dose 3 mg/kg) it was 75%; in the test with TLR9 (dose 10 mg/kg), 83%; with TLR9 (dose 30 mg/kg), 88%; with TLR9 (dose 100 mg/kg), 62%. At human TLR9, this compound had an IC50 of 521 nM.
